Key:
NOD/LtJ T cells = conditions: in conjunction with SDF-1α; cited from earlier work
NOD mice = conditions: inhibition of CXCR4 activity; cited from earlier work
NOD/LtJ CD3 T cells = assay: Hydrodynamic shear detachment assay of T cells off TNF-α activated islet endothelial cells; type: cell-based, mouse
Source text: T cell Robo-1 expression governs SDF-1 mediated detachment: The inventors examined whether Robo-1 immuno-neutralization could affect SDF-1α mediated chemorepulsion of NOD/LtJ CD3 T cells. FIGS. 5-7 show results from hydrodynamic shear detachment assays of T cells off of TNF-α activated islet endothelial cells. FIG. 5 illustration indicates molecular events. FIGS. 6 and 7 illustrate the effect of Robo-1 antibody on T cell detachment at low and higher shear rates (1 and 2.5 dyne/cm^2, respectively).

human CD3 T cell = assay: Shear mediated CD3 T cell detachment from fresh frozen human pancreas tissue; type: cell-based; conditions: SDF-1α pretreatment, physiological shear stress
Source text: FIG. 3 is a line graph showing non-diabetic human CD3 T cell shear mediated detachment from fresh frozen human pancreas tissue with or without SDF-1 pretreatment.
FIG. 4 is a line graph showing T1D human CD3 T cell detachment from fresh frozen human pancreas tissue with or without SDF-1 pretreatment. 3 non-diabetic and 3 T1D subjects <1 yr diagnosis were used for T cell isolations. *p<0.01 w/o vs with SDF-1 treatment.
SDF-1α stimulates diabetogenic T cell chemorepulsion: a novel mechanism for potential therapeutic intervention in T1D. Chemokines may be differentially expressed in T1D, which play a role in leukocyte infiltration and adhesion. SDF-1α plays a key role in leukocyte adhesion by activating leukocyte integrins to higher affinity state that promotes their clustering. Due to this effect, SDF-1α has been viewed as a universally potent chemoattractant for leukocyte recruitment at low nanomolar concentrations. However, the inventors discovered novel mechanisms of autoimmune T cell chemorepulsion responses in autoimmune NOD/LtJ diabetic mice and in human T1D T cells at SDF-1α concentrations ranging from 1-100 nM.

NOD CD3 T cell = assay: CD3 T cell adhesion to TNF-α activated islet microvascular endothelial cells; type: cell-based, mouse; conditions: SDF-1α 50 ng/ml; NOD compared to NON or C57 T cells; FIG. 2
NOD/LtJ CD3 T cell = assay: Shear mediated detachment from parallel plate flow chambers coated with recombinant Fc chimera ICAM-1 and VCAM-1; type: cell-based, mouse; conditions: SDF-1 (250 ng/ml) without Slit-2; FIG. 13
Method: FIG. 13 is a bar graph showing NOD CD3 T cell shear detachment at 1 dyne/cm^2 to adhesion molecules with SDF-1 (250 ng/ml) ±Slit-2 (20 μg/ml). *p<0.05 between indicated comparisons.
FIG. 14 is a bar graph showing NOD CD3 T cell shear detachment at 2.5 dyne/cm^2 to adhesion molecules with SDF-1 (250 ng/ml) ±Slit-2 (20 μg/ml). *p<0.05 between indicated comparisons.
Slit-2 peptide stimulates SDF-1 mediated NOD/LtJ T cell detachment: The inventors next examined whether Slit2 engagement of NOD/LtJ T cell Robo-1 could facilitate SDF-1 mediated chemorepulsion. To study this in an unambiguous way, recombinant Fc chimera endothelial cell adhesion molecules ICAM-1 and VCAM-1 was used to coat the surface of parallel plate flow chambers with or without SDF-1α to precisely control the density and presentation of adhesion molecules and chemokine for adhesive interactions.

TITEIRLEQN [LRR-7, Slit-2 peptide containing LRR domain]
attachment of NOD/LtJ T cells from recombinant endothelial cell adhesion molecules (NOD/LtJ T cells): can inhibit attachment

c1cc(CN2CCCNCCNCCCNCC2)ccc1CN1CCCNCCNCCCNCC1 [AMD3100]
adoptive transfer of diabetes (NOD mice): exacerbated adoptive transfer of diabetes

LNSLVLYGN [LRR-9, Slit-2 peptide containing LRR domain]
attachment of NOD/LtJ T cells from recombinant endothelial cell adhesion molecules (NOD/LtJ T cells): can inhibit attachment

LRRIDLSNN [LRR-8, Slit-2 peptide containing LRR domain]
attachment of NOD/LtJ T cells from recombinant endothelial cell adhesion molecules (NOD/LtJ T cells): can inhibit attachment

LNLLSLYDN [LRR-11, Slit-2 peptide containing LRR domain]
attachment of NOD/LtJ T cells from recombinant endothelial cell adhesion molecules (NOD/LtJ T cells): can inhibit attachment

LQLLLLNAN [LRR-10, Slit-2 peptide containing LRR domain]
attachment of NOD/LtJ T cells from recombinant endothelial cell adhesion molecules (NOD/LtJ T cells): can inhibit attachment

SDF-1α: chemokine, ligand of CXCR4, used to treat T cells or coat flow chambers (AYWKENKEQ)
NOD T cell shear detachment (NOD/LtJ CD3 T cells; 1 dyne/cm^2, FIG. 6): stimulates NOD T cell shear detachment | NOD T cell shear detachment (NOD/LtJ CD3 T cells; 2.5 dynes/cm^2, FIG. 7): stimulates NOD T cell shear detachment | human T1D T cell detachment from fresh human pancreas tissue (human CD3 T cell; T1D subjects, FIG. 4): selectively stimulated human T1D T cell detachment | T cell detachment of non-T1D subjects from fresh human pancreas tissue (human CD3 T cell; non-diabetic subjects, FIG. 3): not T cell detachment of non-T1D subjects | NOD CD3 T cell adhesion to TNF-α activated islet endothelial cells (NOD CD3 T cell): selectively prevents NOD CD3 T cell adhesion | NOD/LtJ CD3 T cell shear mediated detachment from ICAM-1 and VCAM-1 (NOD/LtJ CD3 T cell): even more resistant to shear detachment
